# Experimental data: patent publication US6355799B1, “Substituted benzene compounds, process for their preparation, and herbicidal and defoliant compositions containing them” (ISK Americas Incorporated, priority 1997, dated 2002)
# Assays:
# Format in all cases: in vivo
# [1] = system: upland rice (Oryza sp., var. Tebonnet, RICE); assay: Pre-emerge test, crop safety; details: rating scale 0-100, 14 days after application
# Method in brief: (§1)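 Compounds in acetone were track-sprayed at 15-1000 g ai/ha (187 l/ha) on sandy loam pots: pre-emerge one day after seeding, post-emerge at 2-3 leaf stage with 0.25% v/v non-ionic surfactant. Phytotoxicity was rated 14 days later on a 0 (no damage) to 100 (complete death) scale.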
# [2] = system: field corn (Zea mays L., var. Dekalb 535, CORN); assay: Pre-emerge test, crop safety; details: rating scale 0-100, 14 days after application
# Method in brief: as §1
# [3] = system: upland rice (Oryza sp., var. Tebonnet, RICE); assay: Post-emerge test, crop safety; details: rating scale 0-100 (0 no damage, 100 complete death), 14 days after application
# Method in brief: (§2)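 Visual ratings on a 0-100 scale (0 no damage, 100 all plants dead) were taken at 14 days after treatment. Rates of 15-1000 g ai/ha in acetone, 187 l/ha, were sprayed onto soil one day after planting (pre-emerge) or onto 2-3 leaf plants with 0.25% v/v surfactant (post-emerge).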
# [4] = system: field corn (Zea mays L., var. Dekalb 535, CORN); assay: Post-emerge test, crop safety; details: rating scale 0-100 (0 no damage, 100 complete death), 14 days after application
# Method in brief: as §2
# [5] = system: velvetleaf (Abutilon theophrasti, ABUTH); assay: Pre-emerge test, greenhouse herbicide activity screening; details: rating scale 0-100, 14 days after application
# Method in brief: as §2
# [6] = system: barnyardgrass (Echinochloa crus-galli, ECHCG); assay: as above; details: rating scale 0-100, 14 days after application
# Method in brief: as §2
# [7] = system: green foxtail (Setaria viridis, SETVI); assay: as above; details: rating scale 0-100, 14 days after application
# Method in brief: as §2
# [8] = system: johnsongrass (Sorghum halepense, SORHA); assay: as above; details: rating scale 0-100, 14 days after application
# Method in brief: as §2
# [9] = system: large crabgrass (Digitaria sanguinalis, DIGSA); assay: as above; details: rating scale 0-100, 14 days after application
# Method in brief: as §2
# [10] = system: sicklepod (Cassia obtusifolia, CASOB); assay: as above; details: rating scale 0-100, 14 days after application
# Method in brief: as §2
# [11] = system: lambsquarters (Chenopodium album, CHEAL); assay: as above; details: rating scale 0-100, 14 days after application
# Method in brief: as §2
# [12] = system: ivyleaf morningglory (Ipomoea hederacea, IPOHE); assay: as above; details: rating scale 0-100, 14 days after application
# Method in brief: as §2
# [13] = system: common ragweed (Ambrosia artemisizfolia L., AMBEL); assay: as above; details: rating scale 0-100, 14 days after application
# Method in brief: as §2
# [14] = system: redroot pigweed (Amaranthus retroflexus, AMARE); assay: as above; details: rating scale 0-100, 14 days after application
# Method in brief: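 Plants grown in 10 cm pots of sandy loam mix received acetone-dissolved compounds through a moving flat-fan nozzle. Doses ranged from 15 to 1000 g ai/ha. Pre-emerge pots were seeded one day earlier, post-emerge pots 8–21 days earlier. Fourteen days on, each pot was graded 0–100 for damage.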
# [15] = system: velvetleaf (Abutilon theophrasti, ABUTH); assay: Post-emerge test, greenhouse herbicide activity screening; details: rating scale 0-100 (0 no damage, 100 complete death), 14 days after application
# Method in brief: as §2
# [16] = system: barnyardgrass (Echinochloa crus-galli, ECHCG); assay: as above; details: rating scale 0-100 (0 no damage, 100 complete death), 14 days after application
# Method in brief: as §2
# [17] = system: green foxtail (Setaria viridis, SETVI); assay: as above; details: rating scale 0-100 (0 no damage, 100 complete death), 14 days after application
# Method in brief: as §2
# [18] = system: johnsongrass (Sorghum halepense, SORHA); assay: as above; details: rating scale 0-100 (0 no damage, 100 complete death), 14 days after application
# Method in brief: as §2
# [19] = system: large crabgrass (Digitaria sanguinalis, DIGSA); assay: as above; details: rating scale 0-100 (0 no damage, 100 complete death), 14 days after application
# Method in brief: as §2
# [20] = system: redroot pigweed (Amaranthus retroflexus, AMARE); assay: as above; details: rating scale 0-100 (0 no damage, 100 complete death), 14 days after application
# Method in brief: as §2
# [21] = system: sicklepod (Cassia obtusifolia, CASOB); assay: as above; details: rating scale 0-100 (0 no damage, 100 complete death), 14 days after application
# Method in brief: as §2
# [22] = system: lambsquarters (Chenopodium album, CHEAL); assay: as above; details: rating scale 0-100 (0 no damage, 100 complete death), 14 days after application
# Method in brief: as §2
# [23] = system: ivyleaf morningglory (Ipomoea hederacea, IPOHE); assay: as above; details: rating scale 0-100 (0 no damage, 100 complete death), 14 days after application
# Method in brief: as §2
# [24] = system: common ragweed (Ambrosia artemisizfolia L., AMBEL); assay: as above; details: rating scale 0-100 (0 no damage, 100 complete death), 14 days after application
# Method in brief: as §2
compound,measurement,setting,value
"CCCOC(=O)C(Cl)Cc1c(OC)c(Cl)cc(F)c1-n1c(=O)cc(C(F)(F)F)n(C)c1=O (single isomer, unassigned) [14-7]","Pre-emerge phytotoxicity rating, crop damage RICE",[1]; 63 g ai/ha,0
same,"Pre-emerge phytotoxicity rating, crop damage RICE",[1]; 250 g ai/ha,40
same,"Pre-emerge phytotoxicity rating, crop damage CORN",[2]; 63 g ai/ha,10
same,"Pre-emerge phytotoxicity rating, crop damage CORN",[2]; 250 g ai/ha,90
same,Post-emerge phytotoxicity rating RICE (crop damage),[3]; Rate 63 g ai/ha,10
same,Post-emerge phytotoxicity rating RICE (crop damage),[3]; Rate 250 g ai/ha,25
same,Post-emerge phytotoxicity rating CORN (crop damage),[4]; Rate 63 g ai/ha,95
same,Post-emerge phytotoxicity rating CORN (crop damage),[4]; Rate 250 g ai/ha,100
same,"Pre-emerge herbicidal activity, phytotoxicity rating ABUTH",[5]; 63 g ai/ha,100
same,"Pre-emerge herbicidal activity, phytotoxicity rating ABUTH",[5]; 250 g ai/ha,100
same,"Pre-emerge herbicidal activity, phytotoxicity rating ECHCG",[6]; 63 g ai/ha,0
same,"Pre-emerge herbicidal activity, phytotoxicity rating ECHCG",[6]; 250 g ai/ha,75
same,"Pre-emerge herbicidal activity, phytotoxicity rating SETVI",[7]; 63 g ai/ha,10
same,"Pre-emerge herbicidal activity, phytotoxicity rating SETVI",[7]; 250 g ai/ha,90
same,"Pre-emerge herbicidal activity, phytotoxicity rating SORHA",[8]; 63 g ai/ha,0
same,"Pre-emerge herbicidal activity, phytotoxicity rating SORHA",[8]; 250 g ai/ha,70
same,"Pre-emerge herbicidal activity, phytotoxicity rating DIGSA",[9]; 63 g ai/ha,90
same,"Pre-emerge herbicidal activity, phytotoxicity rating DIGSA",[9]; 250 g ai/ha,100
same,"Pre-emerge herbicidal activity, phytotoxicity rating CASOB",[10]; 63 g ai/ha,20
same,"Pre-emerge herbicidal activity, phytotoxicity rating CASOB",[10]; 250 g ai/ha,0
same,"Pre-emerge herbicidal activity, phytotoxicity rating CHEAL",[11]; 63 g ai/ha,40
same,"Pre-emerge herbicidal activity, phytotoxicity rating CHEAL",[11]; 250 g ai/ha,85
same,"Pre-emerge herbicidal activity, phytotoxicity rating IPOHE",[12]; 63 g ai/ha,0
same,"Pre-emerge herbicidal activity, phytotoxicity rating IPOHE",[12]; 250 g ai/ha,0
same,"Pre-emerge herbicidal activity, phytotoxicity rating AMBEL",[13]; 63 g ai/ha,0
same,"Pre-emerge herbicidal activity, phytotoxicity rating AMBEL",[13]; 250 g ai/ha,50
same,"Pre-emerge herbicidal activity, phytotoxicity rating AMARE",[14]; 63 g ai/ha,90
same,"Pre-emerge herbicidal activity, phytotoxicity rating AMARE",[14]; 250 g ai/ha,100
same,"Post-emerge Herbicidal Activity, phytotoxicity rating ABUTH",[15]; Rate 63 g ai/ha,50
same,"Post-emerge Herbicidal Activity, phytotoxicity rating ABUTH",[15]; Rate 250 g ai/ha,100
same,"Post-emerge Herbicidal Activity, phytotoxicity rating ECHCG",[16]; Rate 63 g ai/ha,100
same,"Post-emerge Herbicidal Activity, phytotoxicity rating ECHCG",[16]; Rate 250 g ai/ha,100
same,"Post-emerge Herbicidal Activity, phytotoxicity rating SETVI",[17]; Rate 63 g ai/ha,60
same,"Post-emerge Herbicidal Activity, phytotoxicity rating SETVI",[17]; Rate 250 g ai/ha,85
same,"Post-emerge Herbicidal Activity, phytotoxicity rating SORHA",[18]; Rate 63 g ai/ha,70
same,"Post-emerge Herbicidal Activity, phytotoxicity rating SORHA",[18]; Rate 250 g ai/ha,90
same,"Post-emerge Herbicidal Activity, phytotoxicity rating DIGSA",[19]; Rate 63 g ai/ha,80
same,"Post-emerge Herbicidal Activity, phytotoxicity rating DIGSA",[19]; Rate 250 g ai/ha,100
same,"Post-emerge Herbicidal Activity, phytotoxicity rating AMARE",[20]; Rate 63 g ai/ha,95
same,"Post-emerge Herbicidal Activity, phytotoxicity rating AMARE",[20]; Rate 250 g ai/ha,100
same,"Post-emerge Herbicidal Activity, phytotoxicity rating CASOB",[21]; Rate 63 g ai/ha,0
same,"Post-emerge Herbicidal Activity, phytotoxicity rating CASOB",[21]; Rate 250 g ai/ha,20
same,"Post-emerge Herbicidal Activity, phytotoxicity rating CHEAL",[22]; Rate 63 g ai/ha,90
same,"Post-emerge Herbicidal Activity, phytotoxicity rating CHEAL",[22]; Rate 250 g ai/ha,99
same,"Post-emerge Herbicidal Activity, phytotoxicity rating IPOHE",[23]; Rate 63 g ai/ha,20
same,"Post-emerge Herbicidal Activity, phytotoxicity rating IPOHE",[23]; Rate 250 g ai/ha,60
same,"Post-emerge Herbicidal Activity, phytotoxicity rating AMBEL",[24]; Rate 63 g ai/ha,50
same,"Post-emerge Herbicidal Activity, phytotoxicity rating AMBEL",[24]; Rate 250 g ai/ha,90
